We go through two compounds from paper PMC5562236, “Properties of Two Novel Esterases Identified from Culture Supernatant of Penicillium purpurogenum Grown on Sugar Beet Pulp” (Insights in enzyme research, 2016).

In the assay the test system is T1, FAET.
T1 construct: full-length cDNA (introns removed) with own signal peptide in pPICZB, stop codon kept, no tag seen; secreted by Pichia pastoris GS115, culture supernatant, no purification described
Kind of assay: pNP release at […] nm, microplate, recombinant P. pastoris culture supernatant. Format: biochemical, Talaromyces purpureogenus. Particulars: 100 mM sodium phosphate pH 5.8, 28 °C (general pNP assay).

As for `CC(=O)Oc1ccc([N+](=O)[O-])cc1` [pNP-acetate], the Km came to 2300 µM.

With `COc1cc(/C=C/C(=O)Oc2ccc([N+](=O)[O-])cc2)ccc1O` [pNP-ferulate], the Michaelis-Menten constant (Km) is 1400 µM.
